Data reported in patent US9709555B2, “Compound for generating second harmonic of light, dye composition for generating second harmonic of light, and cell examination method” (KEIO UNIVERSITY, priority 2013, dated 2017).
Values after ≈ are worked out from the molar mass of the structure shown. “Also recorded” adds a separate entry of the source.

What was measured:
CHO cells [1] = assay: Evaluation of cytotoxicity of dyes (cell forms before and after dyeing); assay type: cell-based, Chinese Hamster; conditions: cell form before and after dyeing, differential interference figure
Description: For evaluation of cytotoxicity due to a dye, cell forms before and after dyeing were confirmed from a differential interference figure using near-infrared light. Cytotoxicity was evaluated by particularly focusing on two points that 1) a cell having an extended structure due to interaction with an extracellular matrix loses its adhesion to thus separate from a cover glass and is rounded, and 2) a cell membrane having a smooth form becomes an inhomogeneous and uneven form, when the physiological condition of the cell deteriorates.

CHO cells [2] = assay: Evaluation of SHG and TPF signals of dyes applied to CHO cells; assay type: cell-based, Chinese Hamster; conditions: about 100 μM dye, pulse laser at 1,000 nm, qualitative comparison
Description: (§1) DMSO solutions of the dyes #1 to #3, #4, #5 and Ap3 were diluted 1000 times using an extracellular fluid (Artificial Cerebrospinal Fluid), and when all were assumed to be dissolved, the final concentration was set at about 100 μM.
A CHO (Chinese Hamster Ovary) cell cultured on a cover glass was used as an observation subject, immersed into the above described dye solution to try dyeing a cell membrane, and directly observed under a microscope within several minutes.
A multiphoton laser microscope system (FV1000MPE manufactured by Olympus Corporation) on which an ultrashort femtosecond laser (MaitaiHP manufactured by Newport) was mounted was used for the observation, and SHG and two-photon fluorescence (Two-Photon Fluorescence: TPF) after irradiation by a pulse laser at 1,000 nm were observed under the same detection condition for each dye. Three images were obtained by changing fields of view per each dye, and signal intensities were qualitatively compared among the dyes. FIGS. 4 to 6 show images of Comparative Examples 4 to 6, and FIGS. 7 and 8 show images of Examples 2 and 3, respectively.

[3] = Evaluation of solubility of dyes; assay type: physicochemical; conditions: for Dissolving in DMSO: DMSO added to a dye concentration of about 100 mM; for solubility: extracellular fluid (Artificial Cerebrospinal Fluid), aqueous buffer, kinetic from dmso stock; for solubility / Solubility (μM): solubility into a buffer, DMSO solution diluted 1000 times with extracellular fluid; for Solubility into a buffer: result in words
Description: Furthermore, using anionic, neutral, zwitter, and dicationic dyes shown in Table 1, solubility into a buffer, toxicity, and presence or absence of SHG and TPF signals when applied to cultured cells (CHO cells) were evaluated, respectively. Herein, the dyes #1 to 5 are dyes for generating a second harmonic of light outside of the range of the present invention, and the dyes #6 and 7 are dyes for generating a second harmonic of light within the range of the present invention.
DMSO (dimethyl sulfoxide) was added to the synthesized dye group (dyes #1 to #7) in Table 2 to have a concentration of a dye at about 100 mM and dissolving was attempted.
as §1

[4] = system: cultured human normal astrocyte; assay: SHG and TPF imaging of dye introduced into cultured human normal astrocyte; assay type: cell-based; conditions: 100 μM dye in buffer, introduced by pipette, 1,000 nm exciting light; for SHG signal: SHG at 500 nm
Description: A buffer containing 100 μM of FM4-64 was prepared and introduced into a cultured human normal astrocyte using a pipette. The dye that was introduced into the cell spreads throughout the entire cell over time.
For the measurement, a multiphoton microscope capable of SHG imaging and TPF imaging obtained by incorporating a tunable femtosecond mode synchronous infrared laser into a commercially available confocal laser scanning microscope was used as the light source. By irradiating with 1,000 nm of exciting light, an SHG signal light having a wavelength of 500 nm is generated from the dye in the same direction as the direction in which an infrared pulse laser travels. The signal can be detected in a photomultiplier tube provided on the laser light traveling direction side. A back scattered component of the TPF signal light is also observed by irradiating with the same exciting light.
SHG and TPF imaging was carried out in the same manner as Comparative Example 1 except for using Ap1 to Ap3 as dyes, and these cases were Comparative Examples 2 and 3 and Example 1, respectively.

nerve cell = conditions: dye introduced from the cell exterior, femtosecond laser; cited from earlier work

Question: With `CCCCN(CCCC)c1ccc(/N=N/c2ccc(S(=O)(=O)O)cc2)cc1` [#1] as the molecule, how does the Toxicity (CHO cells [1]) read?
Answer: High

Question: What about the SHG signal (CHO cells [2]) of the same molecule?
Answer: Good

Question: What about the TPF signal (CHO cells [2]) of the same molecule?
Answer: None

Question: What about the “Dissolving in DMSO” value [3] of the same molecule?
Answer: easily dissolved

Question: And the solubility [3]?
Answer: ~100 µM (≈ 39 µg/mL)

Question: Which results are given for `CCCCCCN(CCCCCC)c1ccc(/N=N/c2ccc(S(=O)(=O)O)cc2)cc1` [#2]?
Answer: Toxicity (CHO cells [1]): High; SHG signal (CHO cells [2]): Good; TPF signal (CHO cells [2]): None; Dissolving in DMSO [3]: easily dissolved; solubility [3]: ~100 µM (≈ 44.6 µg/mL)

Question: With `CCCCCCCCN(CCCCCCCC)c1ccc(/N=N/c2ccc(S(=O)(=O)O)cc2)cc1` [#3] as the molecule, how does the Toxicity (CHO cells [1]) read?
Answer: Some

Question: What about the SHG signal (CHO cells [2]) of the same molecule?
Answer: Good

Question: What about the TPF signal (CHO cells [2]) of the same molecule?
Answer: None

Question: And the “Dissolving in DMSO” value [3]?
Answer: easily dissolved

Question: And the solubility [3]?
Answer: ~100 µM (≈ 50.2 µg/mL)

Question: For `CCCCCCN(CCCCCC)c1ccc(/N=N/c2ccc(C=O)cc2)cc1` [#4], which SHG signal (CHO cells [2]) is on record?
Answer: not obtained at all

Question: And the TPF signal (CHO cells [2])?
Answer: not obtained at all

Question: And the “Dissolving in DMSO” value [3]?
Answer: no dissolving

Question: What about the “Solubility (μM)” value [3] of the same molecule?
Answer: Insoluble

Question: With `CCCCCCN(CCCCCC)c1ccc(/N=N/c2ccc(C=C(C#N)C#N)cc2)cc1` [#5] as the molecule, how does the SHG signal (CHO cells [2]) read?
Answer: not obtained at all

Question: And the TPF signal (CHO cells [2])?
Answer: not obtained at all

Question: And the “Dissolving in DMSO” value [3]?
Answer: no dissolving

Question: What about the “Solubility (μM)” value [3] of the same molecule?
Answer: Insoluble

Question: For `CCCCCCN(CCCCCC)c1ccc(/N=N/c2cc[n+](CCCS(=O)(=O)[O-])cc2)cc1` [#6, (E)-3-(4-((4-(dihexylamino)phenyl)diazenyl)pyridin-1-ium-1-yl)propane-1-sulfonate], which Toxicity (CHO cells [1]) is on record?
Answer: no problem; also recorded: Little

Question: What about the SHG signal (CHO cells [2]) of the same molecule?
Answer: observed and Fine

Question: And the TPF signal (CHO cells [2])?
Answer: not observed and None

Question: And the “Dissolving in DMSO” value [3]?
Answer: poor solubility

Question: And the solubility [3]?
Answer: < 100 µM

Question: And the “Solubility into a buffer” value [3]?
Answer: no problem

Question: Which Toxicity (CHO cells [1]) does the source give for `CCCCCCCCN(CCCCCCCC)c1ccc(/N=N/c2cc[n+](CCCS(=O)(=O)[O-])cc2)cc1` [#7, (E)-3-(4-((4-(dioctylamino)phenyl)diazenyl)pyridin-1-ium-1-yl)propane-1-sulfonate] here?
Answer: no problem; also recorded: Little

Question: What about the SHG signal (CHO cells [2]) of the same molecule?
Answer: observed and Fine

Question: And the TPF signal (CHO cells [2])?
Answer: not observed and None

Question: And the “Dissolving in DMSO” value [3]?
Answer: poor solubility

Question: And the solubility [3]?
Answer: < 100 µM

Question: What about the “Solubility into a buffer” value [3] of the same molecule?
Answer: no problem

Question: With `CCCCCCN(CCCCCC)c1ccc(/N=N/c2cc[n+](CCC[N+](CC)(CC)CC)cc2)cc1` [Ap3] as the molecule, how does the Toxicity (CHO cells [1]) read?
Answer: no problem; also recorded: Little

Question: What about the SHG signal (CHO cells [2]) of the same molecule?
Answer: observed and Good

Question: What about the TPF signal (CHO cells [2]) of the same molecule?
Answer: not observed and None

Question: And the solubility [3]?
Answer: 100 µM

Question: And the “Solubility into a buffer” value [3]?
Answer: no problem

Question: And the TPF signal [4]?
Answer: not observed

Question: And the SHG signal [4]?
Answer: can be observed

Question: Which “Fluorescent (TPF) signal” value (nerve cell) does the source give for `CCN(CC)c1ccc(/C=C/C=C/C=C/c2cc[n+](CCC[N+](CC)(CC)CC)cc2)cc1` [FM4-64, reference compound] here?
Answer: detected

Question: What about the SHG signal (nerve cell) of the same molecule?
Answer: very strong

Question: What about the TPF signal [4] of the same molecule?
Answer: observed

Question: What about the SHG signal [4] of the same molecule?
Answer: observed
